From US12209102B2, “Heterocyclic compounds and uses thereof” (Kumquat Biosciences Inc., priority 2022, dated 2025)

Experiments:
SW620 cells = assay: Ras cellular assay, growth of cells with K-Ras G12V mutation (CellTiter-Glo); assay type: cell-based; conditions: Homo sapiens, SW-620; cell growth, Example 9, G12V mutation; read-out: IC50 against SW620 cells
Outline: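 SW620 (K-Ras G12V) cells, e.g. 800/well in RPMI-1640 with 10% heat-inactivated FBS on standard or ultra-low attachment plates, were dosed the day after plating with e.g. a 10-point 3-fold series. Viability by CellTiter-Glo luminescence about 6 days later; IC50 from four-parameter fit.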

A549 cells = assay: Ras cellular assay, growth of cells with K-Ras G12S mutation (CellTiter-Glo); assay type: cell-based; conditions: Homo sapiens, cell growth, Example 9, G12S mutation, read-out: IC50 against A549 cells
Outline: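 A549 cells (K-Ras G12S) in RPMI-1640 with 10% heat-inactivated FBS, seeded e.g. 800 per well in standard or ultra-low-attachment 384-well plates, treated next day with a dilution series (e.g. 10-point, 3-fold). Viability by CellTiter-Glo luminescence about 6 days later; IC50 from four-parameter fit.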

K-Ras G12S = biological target: T1, K-Ras G12S (Homo sapiens, UniProt P01116, G12S); assay: HTRF resonance energy transfer assay, K-Ras G12S / SOS1 interaction; assay type: biochemical; conditions: HTRF assay of Example 5; read-out: IC50 against K-Ras G12S
T1 construct: made in house; host or cells: E. coli BL21 (DE3)
Outline: (§1)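 GST-tagged K-Ras (WT or mutant) bound to anti-GST-Eu donor was mixed with His-hSOS1 bound to anti-6His-XL665 acceptor in ~5 mM HEPES pH 7.4, 150 mM NaCl, 1 mM DTT, 0.05% BSA, 0.0025% Igepal. HTRF (ex 337, em 620/665 nm) was read after ~10 min or longer. IC50 came from the 665/620 ratio over duplicates from 10 μM to 0.01 μM.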

K-Ras WT = biological target: T2, K-Ras WT (Homo sapiens, UniProt P01116); assay: HTRF resonance energy transfer assay, K-Ras WT / SOS1 interaction; assay type: biochemical; conditions: HTRF assay of Example 5; read-out: IC50 against K-Ras WT
T2 construct: made in house; host or cells: E. coli BL21 (DE3)
Outline: as §1

K-Ras G12V = biological target: T3, K-Ras G12V (Homo sapiens, UniProt P01116, G12V); assay: HTRF resonance energy transfer assay, K-Ras G12V / SOS1 interaction; assay type: biochemical; conditions: HTRF assay of Example 5; read-out: IC50 against K-Ras G12V
T3 construct: made in house; host or cells: E. coli BL21 (DE3)
Outline: as §1

K-Ras G12D = biological target: T4, K-Ras G12D (Homo sapiens, UniProt P01116, G12D); assay: HTRF resonance energy transfer assay, K-Ras G12D / SOS1 interaction; assay type: biochemical; conditions: HTRF assay of Example 5; read-out: IC50 against K-Ras G12D
T4 construct: made in house; host or cells: E. coli BL21 (DE3)
Outline: as §1

GP2D cells = assay: Ras cellular assay, growth of cells with K-Ras G12D mutation (CellTiter-Glo); assay type: cell-based; conditions: cell growth, Example 9, G12D mutation, read-out: IC50 against GP2D cells

T1 sequence (P01116 1-188 isoform P01116-2 G12S): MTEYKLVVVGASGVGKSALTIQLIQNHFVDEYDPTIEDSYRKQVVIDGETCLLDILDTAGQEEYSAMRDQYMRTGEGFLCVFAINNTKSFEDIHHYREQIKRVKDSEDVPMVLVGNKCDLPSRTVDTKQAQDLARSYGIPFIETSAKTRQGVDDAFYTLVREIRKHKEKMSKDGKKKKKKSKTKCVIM
T3 sequence (P01116 1-188 isoform P01116-2 G12V): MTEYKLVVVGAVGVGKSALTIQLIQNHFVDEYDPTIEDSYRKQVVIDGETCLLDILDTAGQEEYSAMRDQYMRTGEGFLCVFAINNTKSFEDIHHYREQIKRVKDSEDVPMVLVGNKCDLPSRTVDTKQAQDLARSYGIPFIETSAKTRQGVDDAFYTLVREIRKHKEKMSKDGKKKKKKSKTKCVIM
T2 sequence (P01116 1-188 isoform P01116-2): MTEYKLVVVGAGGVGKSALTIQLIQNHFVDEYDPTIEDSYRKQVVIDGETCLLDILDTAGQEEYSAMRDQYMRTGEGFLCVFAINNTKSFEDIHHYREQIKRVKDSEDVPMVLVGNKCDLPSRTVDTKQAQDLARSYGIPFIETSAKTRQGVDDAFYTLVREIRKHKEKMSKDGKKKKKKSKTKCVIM
T4 sequence (P01116 1-188 isoform P01116-2 G12D): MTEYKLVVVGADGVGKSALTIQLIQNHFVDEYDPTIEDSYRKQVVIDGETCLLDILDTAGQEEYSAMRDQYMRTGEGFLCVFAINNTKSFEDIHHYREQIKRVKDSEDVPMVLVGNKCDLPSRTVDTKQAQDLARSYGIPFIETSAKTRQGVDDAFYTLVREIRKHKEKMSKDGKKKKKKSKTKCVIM

IC50 (SW620 cells) [nM] | IC50 (A549 cells) [nM] | IC50 (K-Ras G12S) [nM] | IC50 (K-Ras WT) [nM] | IC50 (K-Ras G12V) [nM] | IC50 (K-Ras G12D) [nM] | SMILES | IC50 (GP2D cells) [nM]
< 5000 | < 5000 | < 100 | < 100 | < 100 | < 100 | CN(C=O)C1CC(N2CCOc3c(Cl)c(-c4ccc(F)c5sc(N)c(C#N)c45)c(F)c4nc(OC[C@@]56CCCN5C[C@H](F)C6)nc2c34)C1 (stereo partly drawn) [Compound 1119, N-(3-(9-(2-amino-3-cyano-7-fluorobenzo[b]thiophen-4-yl)-8-chloro-10-fluoro-2-(((2R,7aS)-2-fluorotetrahydro-1H-pyrrolizin-7a(5H)-yl)methoxy)-5,6-dihydro-4H-[1,4]oxazepino[5,6,7-de]quinazolin-4-yl)cyclobutyl)-N-methylformamide] | < 500
< 5000 | < 5000 | < 100 | < 100 | < 100 | < 100 | N#Cc1c(N)sc2c(F)ccc(-c3c(Cl)c4c5c(nc(OC[C@@]67CCCN6C[C@H](F)C7)nc5c3F)N(C3CCCOC3)CCO4)c12 (stereo partly drawn) [Compound 819, 2-amino-4-(8-chloro-10-fluoro-2-(((2R,7aS)-2-fluorotetrahydro-1H-pyrrolizin-7a(5H)-yl)methoxy)-4-(tetrahydro-2H-pyran-3-yl)-5,6-dihydro-4H-[1,4]oxazepino[5,6,7-de]quinazolin-9-yl)-7-fluorobenzo[b]thiophene-3-carbonitrile] | < 500
< 5000 | < 5000 | < 100 | < 100 | < 100 | < 100 | COC1(C)CC(N2CCOc3c(Cl)c(-c4ccc(F)c5sc(N)c(C#N)c45)c(F)c4nc(OC[C@@]56CCCN5C[C@H](F)C6)nc2c34)C1 (stereo partly drawn) [Compound 737, 2-amino-4-(8-chloro-10-fluoro-2-(((2R,7aS)-2-fluorotetrahydro-1H-pyrrolizin-7a(5H)-yl)methoxy)-4-(3-methoxy-3-methylcyclobutyl)-5,6-dihydro-4H-[1,4]oxazepino[5,6,7-de]quinazolin-9-yl)-7-fluorobenzo[b]thiophene-3-carbonitrile] | < 500
< 5000 | < 5000 | < 100 | < 100 | < 100 | < 100 | N#Cc1c(N)sc2c(F)ccc(-c3c(Cl)c4c5c(nc(OC[C@@]67CCCN6C[C@H](F)C7)nc5c3F)N(CC(F)F)[C@@H](C(F)F)CO4)c12 [Compound 1057, 2-amino-4-((5R)-8-chloro-4-(2,2-difluoroethyl)-5-(difluoromethyl)-10-fluoro-2-(((2R,7aS)-2-fluorotetrahydro-1H-pyrrolizin-7a(5H)-yl)methoxy)-5,6-dihydro-4H-[1,4]oxazepino[5,6,7-de]quinazolin-9-yl)-7-fluorobenzo[b]thiophene-3-carbonitrile] | < 500
< 5000 | < 5000 | < 100 | < 100 | < 100 | < 100 | N#Cc1c(N)sc2c(F)ccc(-c3c(Cl)c4c5c(nc(OC[C@@]67CCCN6C[C@H](F)C7)nc5c3F)N(CC(F)F)C(CC(F)F)CO4)c12 (stereo partly drawn) [Compound 701, 2-amino-4-(8-chloro-4,5-bis(2,2-difluoroethyl)-10-fluoro-2-(((2R,7aS)-2-fluorotetrahydro-1H-pyrrolizin-7a(5H)-yl)methoxy)-5,6-dihydro-4H-[1,4]oxazepino[5,6,7-de]quinazolin-9-yl)-7-fluorobenzo[b]thiophene-3-carbonitrile] | < 500
< 5000 | < 5000 | < 100 | < 100 | < 100 | < 100 | N#Cc1c(N)sc2c(F)ccc(-c3c(Cl)c4c5c(nc(OC[C@@]67CCCN6C[C@H](F)C7)nc5c3F)N(CC3(O)CC3)CCO4)c12 [Compound 868, 2-amino-4-(8-chloro-10-fluoro-2-(((2R,7aS)-2-fluorotetrahydro-1H-pyrrolizin-7a(5H)-yl)methoxy)-4-((1-hydroxycyclopropyl)methyl)-5,6-dihydro-4H-[1,4]oxazepino[5,6,7-de]quinazolin-9-yl)-7-fluorobenzo[b]thiophene-3-carbonitrile] | < 500
< 5000 | < 5000 | < 100 | < 100 | < 100 | < 100 | N#Cc1c(N)sc2c(F)ccc(-c3c(Cl)c4c5c(nc(OC[C@@]67CCCN6C[C@H](F)C7)nc5c3F)N(C3CCN(C(=O)C[C@@H]5CCOC5)C3)CCO4)c12 (stereo partly drawn) [Compound 699, 2-amino-4-(8-chloro-10-fluoro-2-(((2R,7aS)-2-fluorotetrahydro-1H-pyrrolizin-7a(5H)-yl)methoxy)-4-(1-(2-((S)-tetrahydrofuran-3-yl)acetyl)pyrrolidin-3-yl)-5,6-dihydro-4H-[1,4]oxazepino[5,6,7-de]quinazolin-9-yl)-7-fluorobenzo[b]thiophene-3-carbonitrile] | < 500
< 5000 | < 5000 | < 100 | < 100 | < 100 | < 100 | C[C@@H]1CCOc2c(Cl)c(-c3ccc(F)c4sc(N)c(C#N)c34)c(F)c3nc(OC[C@@]45CCCN4C[C@H](F)C5)nc(c23)N1CC(F)F [Compound 1203, 2-amino-4-((R)-9-chloro-4-(2,2-difluoroethyl)-11-fluoro-2-(((2R,7aS)-2-fluorotetrahydro-1H-pyrrolizin-7a(5H)-yl)methoxy)-5-methyl-4,5,6,7-tetrahydro-[1,5]oxazocino[4,3,2-de]quinazolin-10-yl)-7-fluorobenzo[b]thiophene-3-carbonitrile] | < 500
< 5000 | < 5000 | < 100 | < 100 | < 100 | < 100 | N#Cc1c(N)sc2c(F)ccc(-c3c(Cl)c4c5c(nc(OC[C@@]67CCCN6C[C@H](F)C7)nc5c3F)N(CC(F)F)CCCO4)c12 [Compound 1218, 2-amino-4-(9-chloro-4-(2,2-difluoroethyl)-11-fluoro-2-(((2R,7aS)-2-fluorotetrahydro-1H-pyrrolizin-7a(5H)-yl)methoxy)-4,5,6,7-tetrahydro-[1,5]oxazocino[4,3,2-de]quinazolin-10-yl)-7-fluorobenzo[b]thiophene-3-carbonitrile] | < 500
< 5000 | < 5000 | < 100 | < 100 | < 100 | < 100 | C[C@H]1CN(CCC(F)F)c2nc(OC[C@@]34CCCN3C[C@H](F)C4)nc3c(F)c(-c4ccc(F)c5sc(N)c(C#N)c45)c(Cl)c(c23)O1 [Compound 664, 2-amino-4-((6S)-8-chloro-4-(3,3-difluoropropyl)-10-fluoro-2-(((2R,7aS)-2-fluorotetrahydro-1H-pyrrolizin-7a(5H)-yl)methoxy)-6-methyl-5,6-dihydro-4H-[1,4]oxazepino[5,6,7-de]quinazolin-9-yl)-7-fluorobenzo[b]thiophene-3-carbonitrile] | < 500
